Results as given in patent publication US20070009533A1 (priority 2005, published 2007).

Molecular target: T1, MDR1 function in K562/R7 cells (Homo sapiens, UniProt P08183)
T1 construct: endogenous in cells; host or cells: K562/R7 cells
Assay type: cell-based
Experimental: The loaded and washed cells were cultured at 37° C. in 0.5 ml lacking or containing the indicated concentrations of drug for the indicated amount of time. Control cells were placed on ice immediately after loading and, as indicated by the symbol to the far right at MFI=1172, the cells had been loaded with dye.

T1 sequence (P08183 whole entry): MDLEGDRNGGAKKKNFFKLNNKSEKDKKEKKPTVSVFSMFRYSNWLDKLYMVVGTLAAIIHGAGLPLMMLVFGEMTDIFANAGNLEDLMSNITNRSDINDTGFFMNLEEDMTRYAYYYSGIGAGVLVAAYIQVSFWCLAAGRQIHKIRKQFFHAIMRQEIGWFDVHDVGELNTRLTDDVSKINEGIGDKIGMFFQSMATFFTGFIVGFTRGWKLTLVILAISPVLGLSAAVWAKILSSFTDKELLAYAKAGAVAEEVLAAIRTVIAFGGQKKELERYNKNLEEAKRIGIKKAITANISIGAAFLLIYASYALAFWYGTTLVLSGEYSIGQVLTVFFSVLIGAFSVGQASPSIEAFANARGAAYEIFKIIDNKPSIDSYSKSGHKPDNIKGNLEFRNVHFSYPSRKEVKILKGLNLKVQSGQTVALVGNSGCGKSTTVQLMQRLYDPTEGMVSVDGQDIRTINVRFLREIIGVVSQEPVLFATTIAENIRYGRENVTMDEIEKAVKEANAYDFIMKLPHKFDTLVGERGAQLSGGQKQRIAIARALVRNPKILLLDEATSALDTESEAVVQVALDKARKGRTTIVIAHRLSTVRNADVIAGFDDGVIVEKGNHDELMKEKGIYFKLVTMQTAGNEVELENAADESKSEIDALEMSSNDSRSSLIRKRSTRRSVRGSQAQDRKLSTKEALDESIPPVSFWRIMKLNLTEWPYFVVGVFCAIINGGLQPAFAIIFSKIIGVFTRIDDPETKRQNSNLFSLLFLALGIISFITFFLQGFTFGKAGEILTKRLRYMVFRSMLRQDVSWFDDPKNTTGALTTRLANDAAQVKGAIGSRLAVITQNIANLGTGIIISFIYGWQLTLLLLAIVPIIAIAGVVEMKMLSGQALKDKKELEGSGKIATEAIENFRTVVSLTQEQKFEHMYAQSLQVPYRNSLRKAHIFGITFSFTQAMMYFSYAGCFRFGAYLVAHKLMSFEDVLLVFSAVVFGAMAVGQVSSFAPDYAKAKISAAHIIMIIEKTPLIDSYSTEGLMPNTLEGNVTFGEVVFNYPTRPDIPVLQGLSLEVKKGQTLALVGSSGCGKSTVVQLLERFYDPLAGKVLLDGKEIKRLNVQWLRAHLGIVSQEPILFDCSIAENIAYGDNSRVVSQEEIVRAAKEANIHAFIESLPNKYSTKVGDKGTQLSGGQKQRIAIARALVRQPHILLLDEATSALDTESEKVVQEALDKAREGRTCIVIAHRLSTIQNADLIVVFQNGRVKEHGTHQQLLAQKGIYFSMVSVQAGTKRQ

O[C@@H](COc1cccc2ncccc12)CN1CCN([C@@H]2c3ccccc3[C@@H]3[C@H](c4ccccc42)C3(F)F)CC1 [zosuquidar]
effect on dye release during efflux incubation: inhibited dye release in a concentration-dependent manner
